Reference: PubChem BioAssay (NCI)
Where “and” joins values, the source holds several entries; their conditions need not be identical. Identical values can stand only once.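 Briefly, cells in 96-well plates were exposed to five compound concentrations for 48 h, and endpoints were estimated by linear interpolation. GI50 = concentration required for 50% inhibition of growth. At the TGI there is no net growth.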

Experiments:
Assay in all cases: inhibition of tumour cell growth, NCI panel, 48 h
SN12C renal = tested on: SN12C renal
NCI-H226 lung = tested on: NCI-H226 lung
CAKI-1 renal = tested on: CAKI-1 renal
HCT-15 colon = tested on: HCT-15 colon
M14 melanoma = tested on: M14 melanoma
SF-539 CNS = tested on: SF-539 CNS
U251 CNS = tested on: U251 CNS
OVCAR-8 ovarian = tested on: OVCAR-8 ovarian
LOX IMVI melanoma = tested on: LOX IMVI melanoma
K-562 leukemia = tested on: K-562 leukemia

SMILES | GI50 (SN12C renal) | TGI (SN12C renal) | GI50 (NCI-H226 lung) | TGI (NCI-H226 lung) | GI50 (CAKI-1 renal) | TGI (CAKI-1 renal) | GI50 (HCT-15 colon) | TGI (HCT-15 colon) | GI50 (M14 melanoma) | TGI (M14 melanoma) | GI50 (SF-539 CNS) | TGI (SF-539 CNS) | GI50 (U251 CNS) | TGI (U251 CNS) | GI50 (OVCAR-8 ovarian) | TGI (OVCAR-8 ovarian) | GI50 (LOX IMVI melanoma) | TGI (LOX IMVI melanoma) | GI50 (K-562 leukemia) | TGI (K-562 leukemia)
COc1ccc(-c2nc(-c3nc4ccc(OC)cc4[nH]3)c3ccccn23)cc1 | 3.91 µM | > 100 µM | 6.57 µM | > 100 µM | 3.81 µM | 49.4 µM | 3.76 µM | 90.6 µM | 3.74 µM | 16 µM | 9.71 µM | > 100 µM | 4.42 µM | > 100 µM | 2.35 µM | 7.6 µM | 4.8 µM | 26 µM | 3.6 µM | > 100 µM
CCN(CC)CCCC(C)Nc1ccnc2cc(Oc3ccccc3)ccc12 (stereo not given) | 9.08 µM and 19.6 µM | 39.5 µM and > 100 µM | 8.4 µM and 14.9 µM | 31.1 µM and > 100 µM | 13.1 µM and 5.96 µM | 37.9 µM and 36.2 µM | 4.34 µM and 3.94 µM | 28.3 µM and 20.1 µM | 1.77 µM and 1.79 µM | 3.5 µM and 3.35 µM | 2.15 µM and 2 µM | 4.35 µM and 4.28 µM | 2.71 µM and 5.51 µM | 9.31 µM and 19.8 µM | 3.62 µM and 9.15 µM | 14.6 µM and 38.5 µM | 2.05 µM and 2.13 µM | 5.06 µM and 6.82 µM | 1.87 µM and 2.56 µM | 4.88 µM and 7.92 µM
CN[C@@H](C)C(=O)N[C@H](C(=O)N1CCC[C@H]1C(=O)Nc1snnc1-c1ccccc1)C1CCCCC1 | 74.9 µM | > 100 µM | > 100 µM | > 100 µM | 68 µM | > 100 µM | 58.3 µM | > 100 µM | 24.6 µM | 55.8 µM | 1.08 µM | > 38.6 µM | 36.3 µM | > 100 µM | 13.8 µM | 21.3 µM | 35.3 µM | > 83.3 µM | 24.4 µM | 57.7 µM
C=C(C)C(=O)Nc1ccc(NC(C)C)cc1 | > 100 µM | > 100 µM | > 100 µM | > 100 µM | > 100 µM | > 100 µM | > 100 µM | > 100 µM | > 100 µM | > 100 µM | > 100 µM | > 100 µM | > 100 µM | > 100 µM | > 100 µM | > 100 µM | > 100 µM | > 100 µM | > 100 µM | > 100 µM
CCC(C)(CC(C)(C)C(=O)NCC(=O)NC(Cc1ccccc1)C(=O)NC(Cc1ccccc1)C(=O)NCC(=O)NC1CC(OC2CC(O)(C(=O)CO)Cc3c(O)c4c(c(O)c32)C(=O)c2c(OC)cccc2C4=O)OC(C)C1O)C(=O)NCC(C)O (stereo not given) | 81.2 µg/mL | > 150 µg/mL | 41.4 µg/mL | > 150 µg/mL | 90.9 µg/mL | > 150 µg/mL | 1.5 µg/mL | 1.5 µg/mL | 120 µg/mL | > 150 µg/mL | 53 µg/mL | > 150 µg/mL | 51.2 µg/mL | > 150 µg/mL | 138 µg/mL | > 150 µg/mL | 35.2 µg/mL | > 150 µg/mL | 86.3 µg/mL | > 150 µg/mL
CCCCNc1nc(C#N)c(N)s1 |  | > 100 µM |  | > 100 µM |  | > 100 µM |  | > 100 µM |  | > 100 µM |  | > 100 µM |  | > 100 µM |  | > 100 µM |  | > 100 µM |  | > 100 µM
O=[N+]([O-])O.[Cu+2].[NH-]CC[NH-].[NH-]CC[NH-] | > 10 µM | > 10 µM | > 10 µM | > 10 µM | > 10 µM | > 10 µM | > 10 µM | > 10 µM | > 10 µM | > 10 µM | > 10 µM | > 10 µM | > 10 µM | > 10 µM | > 10 µM | > 10 µM | > 10 µM | > 10 µM | > 10 µM | > 10 µM
CC1CCC(NC(=O)N(CCCl)N=O)CC1 (stereo not given) | 19.1 µM | 41.7 µM and 81.4 µM | 36.1 µM | 150 µM | 18.9 µM | 37.5 µM and 53.2 µM | 20.6 µM | 43.4 µM and 82.8 µM | 14.3 µM | 30.5 µM and 66.5 µM | 18.9 µM | 43.8 µM and 62.3 µM | 20.8 µM | 65.9 µM | 20 µM | 47.3 µM and 120 µM | 14.7 µM | 39.8 µM and 52.6 µM | 0.122 µM | 28.9 µM and 119 µM
O=C1Nc2ccccc2/C1=C/C(=O)c1coc2c1C(=O)c1ccccc1C2=O | > 100 µM | > 100 µM | > 100 µM | > 100 µM | 34.2 µM | > 100 µM | > 100 µM | > 100 µM | > 100 µM | > 100 µM | > 100 µM | > 100 µM | > 100 µM | > 100 µM | > 100 µM | > 100 µM | > 100 µM | > 100 µM | > 100 µM | > 100 µM
N#CC(NC12CC3CC(CC(C3)C1)C2)c1ccc2c(c1)OCO2 (stereo not given) |  | > 100 µM |  | > 100 µM |  | > 100 µM |  | > 100 µM |  | > 100 µM |  | > 100 µM |  | > 100 µM |  | > 100 µM |  | > 100 µM |  | > 100 µM
Cn1cc(C(=O)NCCC(=N)N)cc1NC(=O)C1=[N+](C)C=C(NC(=O)c2cccc(C(=O)NC3=CC(C(=O)Nc4cc(C(=O)NCCC(=N)N)cn4C)=[N+](C)C3)c2)C1 |  | > 100 µM |  | > 100 µM |  | > 100 µM |  | > 100 µM |  | > 100 µM |  | > 100 µM |  | > 100 µM |  | > 100 µM |  | > 100 µM |  | > 100 µM
COc1cc(/C=C2/C(=O)N(C(=O)OCC(C)C)C(Cc3cc(OC)c(OC)c(C)c3OC)C(=O)N2Cc2ccccc2)c(OC)c(C)c1OC (stereo not given) |  | > 100 µM |  | 9.7 µM |  | > 100 µM |  |  |  | > 100 µM |  | > 100 µM |  | > 100 µM |  | > 100 µM |  | > 100 µM |  | > 100 µM
COc1cc2c(cc1C)NC(=O)/C2=C/c1ccccn1 | 4.01 µM | 18.4 µM | 1.54 µM | 4.86 µM | 2.72 µM | 9.59 µM |  |  | 3.8 µM | > 100 µM | 0.024 µM | 2.47 µM | 2.92 µM | > 100 µM | 3.14 µM | > 100 µM | 3.25 µM | 10.4 µM | 2.71 µM | > 100 µM
C(#Cc1ccccc1C#Cc1cccs1)c1cccs1 |  |  | 39.2 µM | > 100 µM | 43.2 µM | > 100 µM | 24.6 µM | > 100 µM | 32.9 µM | > 100 µM | 71.5 µM | > 100 µM | 66.8 µM | > 100 µM | > 100 µM | > 100 µM | 23.7 µM | 53.8 µM | 30.2 µM | > 100 µM
